Experimental data taken from article PMC5218480 (PLoS ONE, 2017).

Tested on: MV-4-11 cells
Experiment: Gene expression microarray analysis (Affymetrix PrimeView) and GSEA
Assay type: cell-based, human
Design: RFU PODN (11730768_x_at) / Fold change /veh PODN (11730768_x_at) / RFU LINC00158 (11744669_a_at) / Fold change /veh LINC00158 (11744669_a_at) / RFU DUSP10 (11751237_a_at) / Fold change /veh DUSP10 (11751237_a_at) / RFU ID3 (11757404_x_at) / Fold change /veh ID3 (11757404_x_at) / RFU PLEKHG5 (11737974_s_at) / Fold change /veh PLEKHG5 (11737974_s_at) / RFU LRRC4B (11730491_at) / Fold change /veh LRRC4B (11730491_at) / RFU GIMAP4 (11747438_a_at) / Fold change /veh GIMAP4 (11747438_a_at) / RFU KRT8 (11758183_x_at) / Fold change /veh KRT8 (11758183_x_at) / RFU CNN1 (11734310_a_at) / Fold change /veh CNN1 (11734310_a_at) / RFU VPS37D (11726825_at) / Fold change /veh VPS37D (11726825_at) / RFU C10orf10 (11716522_x_at) / Fold change /veh C10orf10 (11716522_x_at) / RFU KIR2DL2 /// KIR2DL4 /// KIR2DL5A /// KIR2DL5B /// KIR2DS1 /// KIR2DS2 /// KIR2DS3 /// KIR2DS4 /// KIR3DL3 /// KIR3DL3 /// KIR3DS1 (11738374_at) / Fold change /veh KIR2DL2 /// KIR2DL4 /// KIR2DL5A /// KIR2DL5B /// KIR2DS1 /// KIR2DS2 /// KIR2DS3 /// KIR2DS4 /// KIR3DL3 /// KIR3DL3 /// KIR3DS1 (11738374_at) / RFU C1QL1 (11718748_at) / Fold change /veh C1QL1 (11718748_at) / RFU TMPRSS4 (11747572_a_at) / Fold change /veh TMPRSS4 (11747572_a_at) / RFU HAMP (11756126_x_at) / Fold change /veh HAMP (11756126_x_at) / RFU RNFT2 (11725882_a_at) / Fold change /veh RNFT2 (11725882_a_at) / RFU NR4A2 (11747474_a_at) / Fold change /veh NR4A2 (11747474_a_at) / RFU ABCC12 (11746883_a_at) / Fold change /veh ABCC12 (11746883_a_at) / RFU TMEM136 (11760407_x_at) / Fold change /veh TMEM136 (11760407_x_at) / RFU CLDN22 /// WWC2 (11732394_at) / Fold change /veh CLDN22 /// WWC2 (11732394_at) / RFU HLA-DPB1 (11760878_x_at) / Fold change /veh HLA-DPB1 (11760878_x_at) / RFU SPINT1 (11716480_a_at) / Fold change /veh SPINT1 (11716480_a_at) / RFU GAP43 (11754022_s_at) / Fold change /veh GAP43 (11754022_s_at) / RFU A4GNT (11735810_at) / Fold change /veh A4GNT (11735810_at) / RFU PRB3 (11715151_x_at) / Fold change /veh PRB3 (11715151_x_at) / RFU TUBB4B (11761932_at) / Fold change /veh TUBB4B (11761932_at) / RFU CAPN14 (11732068_a_at) / Fold change /veh CAPN14 (11732068_a_at) / RFU TMCC2 (11721928_a_at) / Fold change /veh TMCC2 (11721928_a_at) / RFU IRGQ (11745062_a_at) / Fold change /veh IRGQ (11745062_a_at) / RFU FAM174B (11720279_a_at) / Fold change /veh FAM174B (11720279_a_at) / RFU TMPRSS4 (11748680_a_at) / Fold change /veh TMPRSS4 (11748680_a_at) / RFU FAM212B (11763350_a_at) / Fold change /veh FAM212B (11763350_a_at) / RFU PLEKHG5 (11743358_a_at) / Fold change /veh PLEKHG5 (11743358_a_at) / RFU ZSCAN30 (11745921_a_at) / Fold change /veh ZSCAN30 (11745921_a_at) / RFU CMKLR1 (11741424_a_at) / Fold change /veh CMKLR1 (11741424_a_at) / RFU LOC101060620 /// MAPK8IP1 (11723275_at) / Fold change /veh LOC101060620 /// MAPK8IP1 (11723275_at) / RFU SPTSSB (11747773_x_at) / Fold change /veh SPTSSB (11747773_x_at) / RFU PRSS12 (11739890_at) / Fold change /veh PRSS12 (11739890_at) / RFU BIN1 (11741810_x_at) / Fold change /veh BIN1 (11741810_x_at) / RFU WNT11 (11732464_a_at) / Fold change /veh WNT11 (11732464_a_at) / RFU C10orf10 (11716521_a_at) / Fold change /veh C10orf10 (11716521_a_at) / RFU C5orf56 (11738089_at) / Fold change /veh C5orf56 (11738089_at) / RFU CYB561 (11721691_x_at) / Fold change /veh CYB561 (11721691_x_at) / RFU ANKRD19P (11752326_a_at) / Fold change /veh ANKRD19P (11752326_a_at) / RFU OR2T12 /// OR2T33 /// OR2T8 (11738714_s_at) / Fold change /veh OR2T12 /// OR2T33 /// OR2T8 (11738714_s_at) / RFU VCAN (11748164_a_at) / Fold change /veh VCAN (11748164_a_at) / RFU JSRP1 (11732532_at) / Fold change /veh JSRP1 (11732532_at) / RFU KRTAP10-11 (11738290_x_at) / Fold change /veh KRTAP10-11 (11738290_x_at) / RFU MYO3A (11730013_a_at) / Fold change /veh MYO3A (11730013_a_at) / RFU EBF3 (11725865_a_at) / Fold change /veh EBF3 (11725865_a_at) / RFU CAMK2N1 (11719241_x_at) / Fold change /veh CAMK2N1 (11719241_x_at) / RFU C5orf56 (11738088_a_at) / Fold change /veh C5orf56 (11738088_a_at) / RFU OLFML3 (11715873_a_at) / Fold change /veh OLFML3 (11715873_a_at) / RFU LOC100653217 /// NTM (11731650_a_at) / Fold change /veh LOC100653217 /// NTM (11731650_a_at) / RFU MAPK11 (11762145_a_at) / Fold change /veh MAPK11 (11762145_a_at) / RFU FIZ1 (11724087_x_at) / Fold change /veh FIZ1 (11724087_x_at) / RFU OASL (11726364_x_at) / Fold change /veh OASL (11726364_x_at) / RFU SOX15 (11748057_x_at) / Fold change /veh SOX15 (11748057_x_at) / RFU CD79A (11719716_a_at) / Fold change /veh CD79A (11719716_a_at) / RFU HIST1H1D (11736915_at) / Fold change /veh HIST1H1D (11736915_at) / RFU CASKIN2 (11723855_a_at) / Fold change /veh CASKIN2 (11723855_a_at) / RFU LOC730098 (11760151_x_at) / Fold change /veh LOC730098 (11760151_x_at) / RFU OR4N2 (11742367_at) / Fold change /veh OR4N2 (11742367_at) / RFU PRRT2 (11749266_a_at) / Fold change /veh PRRT2 (11749266_a_at) / RFU SNX32 (11753110_a_at) / Fold change /veh SNX32 (11753110_a_at) / RFU CDHR5 (11726645_a_at) / Fold change /veh CDHR5 (11726645_a_at) / RFU RCAN1 (11760418_a_at) / Fold change /veh RCAN1 (11760418_a_at) / RFU FAM167A (11723789_a_at) / Fold change /veh FAM167A (11723789_a_at) / RFU FAM26E (11764081_at) / Fold change /veh FAM26E (11764081_at) / RFU ISYNA1 (11749810_s_at) / Fold change /veh ISYNA1 (11749810_s_at) / RFU ACY1 (11761880_at) / Fold change /veh ACY1 (11761880_at) / RFU 11764098_at / Fold change /veh 11764098_at / RFU SAMD14 (11745864_x_at) / Fold change /veh SAMD14 (11745864_x_at) / RFU NPB (11741838_a_at) / Fold change /veh NPB (11741838_a_at) / RFU TMPRSS6 (11731388_a_at) / Fold change /veh TMPRSS6 (11731388_a_at) / RFU KRTAP10-2 (11738614_at) / Fold change /veh KRTAP10-2 (11738614_at) / RFU ARHGAP8 /// PRR5-ARHGAP8 (11727945_x_at) / Fold change /veh ARHGAP8 /// PRR5-ARHGAP8 (11727945_x_at) / RFU KRTAP5-7 /// NADSYN1 (11734609_at) / Fold change /veh KRTAP5-7 /// NADSYN1 (11734609_at) / RFU RASL12 (11751679_a_at) / Fold change /veh RASL12 (11751679_a_at) / RFU CDKN2B (11736163_a_at) / Fold change /veh CDKN2B (11736163_a_at) / RFU PRF1 (11729649_at) / Fold change /veh PRF1 (11729649_at) / RFU, ZNF638 /// ZNF638-IT1 / Fold change vs veh, ZNF638 /// ZNF638-IT1 / RFU, PANK3 / Fold change vs veh, PANK3 / RFU, SH3YL1 / Fold change vs veh, SH3YL1 / RFU, ZEB2 / Fold change vs veh, ZEB2 / RFU, NRIP1 / Fold change vs veh, NRIP1 / RFU, PTTG1IP / Fold change vs veh, PTTG1IP / RFU, CAPN2 / Fold change vs veh, CAPN2 / RFU, MED14 / Fold change vs veh, MED14 / RFU, SNORA58 / Fold change vs veh, SNORA58 / RFU, C1orf63 / Fold change vs veh, C1orf63 / RFU, LRRFIP1 / Fold change vs veh, LRRFIP1 / RFU, NDUFAF7 / Fold change vs veh, NDUFAF7 / RFU, SLC12A2 / Fold change vs veh, SLC12A2 / RFU, IBTK / Fold change vs veh, IBTK / RFU, ESF1 / Fold change vs veh, ESF1 / Fold change vs veh, TMEM50B / RFU, TAOK1 / Fold change vs veh, TAOK1 / RFU, ACBD3 / Fold change vs veh, ACBD3 / RFU, TMA16 / Fold change vs veh, TMA16 / RFU, RWDD3 / Fold change vs veh, RWDD3 / RFU, BCAT1 / Fold change vs veh, BCAT1 / RFU, EDEM3 / Fold change vs veh, EDEM3 / RFU, TMEM33 / Fold change vs veh, TMEM33 / RFU, WDR75 / Fold change vs veh, WDR75 / RFU, AHCTF1 / Fold change vs veh, AHCTF1 / RFU, TFRC / Fold change vs veh, TFRC / RFU, ZDHHC17 / Fold change vs veh, ZDHHC17 / RFU, NOM1 / Fold change vs veh, NOM1 / RFU, ARL8B / Fold change vs veh, ARL8B / RFU, ZBTB11 / Fold change vs veh, ZBTB11 / RFU, TAMM41 / Fold change vs veh, TAMM41 / RFU, KIAA1704 /// LOC100996395 / Fold change vs veh, KIAA1704 /// LOC100996395 / RFU, ING1 / Fold change vs veh, ING1 / RFU, TRMT61B / Fold change vs veh, TRMT61B / RFU, FUBP3 / Fold change vs veh, FUBP3 / RFU, TP53 / Fold change vs veh, TP53 / RFU, TNKS2 / Fold change vs veh, TNKS2 / RFU, ZFP14 / Fold change vs veh, ZFP14 / RFU, ACTR2 / Fold change vs veh, ACTR2 / RFU, PPP3R1 / Fold change vs veh, PPP3R1 / RFU, PIK3R1 / Fold change vs veh, PIK3R1 / RFU, HNRNPA1 / Fold change vs veh, HNRNPA1 / RFU, RNF170 / Fold change vs veh, RNF170 / RFU, ZNF28 / Fold change vs veh, ZNF28 / RFU, RNGTT / Fold change vs veh, RNGTT / RFU, OGT / Fold change vs veh, OGT / RFU, BRD1 / Fold change vs veh, BRD1 / RFU, MARS / Fold change vs veh, MARS / RFU, ZNF655 / Fold change vs veh, ZNF655 / RFU, FAHD1 / Fold change vs veh, FAHD1 / RFU, BDP1 / Fold change vs veh, BDP1 / RFU, LRRCC1 / Fold change vs veh, LRRCC1 / RFU, ARID1A / Fold change vs veh, ARID1A / RFU, ZNF146 / Fold change vs veh, ZNF146 / RFU, ZNF330 / Fold change vs veh, ZNF330 / RFU, GPN3 / Fold change vs veh, GPN3 / RFU, C9orf123 / Fold change vs veh, C9orf123 / RFU, N4BP2L2 / Fold change vs veh, N4BP2L2 / RFU, ARFIP1 / Fold change vs veh, ARFIP1 / RFU, FAM179B / Fold change vs veh, FAM179B / RFU, BCL10 / Fold change vs veh, BCL10 / RFU, UHRF1BP1L / Fold change vs veh, UHRF1BP1L / RFU, BET1 / Fold change vs veh, BET1 / RFU, CNOT2 / Fold change vs veh, CNOT2 / RFU, ZNF268 / Fold change vs veh, ZNF268 / Fold change vs veh, ZNF507 / RFU, DGCR2 / Fold change vs veh, DGCR2 / RFU, WDSUB1 / Fold change vs veh, WDSUB1 / Fold change vs veh, HSP90B1 /// MIR3652 / RFU, ADSS / Fold change vs veh, ADSS / RFU, GK / Fold change vs veh, GK / RFU, ZNF148 / Fold change vs veh, ZNF148 / RFU, TAF9 / Fold change vs veh, TAF9 / RFU, SLC1A5 / Fold change vs veh, SLC1A5 / RFU, SLMO2 / Fold change vs veh, SLMO2 / RFU, ABCC4 / Fold change vs veh, ABCC4 / RFU, LOC101060439 /// RAP1B / Fold change vs veh, LOC101060439 /// RAP1B / RFU, RFX7 / Fold change vs veh, RFX7 / RFU, GTPBP10 / Fold change vs veh, GTPBP10 / RFU, CNEP1R1 / Fold change vs veh, CNEP1R1 / RFU, BIVM-ERCC5 /// ERCC5 / Fold change vs veh, BIVM-ERCC5 /// ERCC5 / RFU, ILF3 / Fold change vs veh, ILF3 / RFU 11762660_at / Fold change /veh 11762660_at / RFU VCAN (11757783_s_at) / Fold change /veh VCAN (11757783_s_at) / RFU DDX43 (11728927_at) / Fold change /veh DDX43 (11728927_at) / RFU KRT8 (11758188_x_at) / Fold change /veh KRT8 (11758188_x_at) / RFU NKD1 (11759106_at) / Fold change /veh NKD1 (11759106_at) / RFU SRD5A1 (11742802_a_at) / Fold change /veh SRD5A1 (11742802_a_at) / RFU TPSAB1 /// TPSB2 (11721975_s_at) / Fold change /veh TPSAB1 /// TPSB2 (11721975_s_at) / RFU GSTM3 (11746129_a_at) / Fold change /veh GSTM3 (11746129_a_at) / RFU IL23R (11737362_x_at) / Fold change /veh IL23R (11737362_x_at) / RFU TMEM51 (11727254_a_at) / Fold change /veh TMEM51 (11727254_a_at) / RFU PIWIL2 (11732686_x_at) / Fold change /veh PIWIL2 (11732686_x_at) / RFU ORM1 (11744905_x_at) / Fold change /veh ORM1 (11744905_x_at) / RFU CCDC152 (11743942_at) / Fold change /veh CCDC152 (11743942_at) / RFU ECM1 (11717891_a_at) / Fold change /veh ECM1 (11717891_a_at) / RFU IL23R (11748794_a_at) / Fold change /veh IL23R (11748794_a_at) / RFU TNFAIP8L3 (11732012_x_at) / Fold change /veh TNFAIP8L3 (11732012_x_at) / RFU MBOAT4 (11741988_at) / Fold change /veh MBOAT4 (11741988_at) / RFU 11764193_at / Fold change /veh 11764193_at / RFU TMEM53 (11763286_at) / Fold change /veh TMEM53 (11763286_at) / RFU MAGEB2 (11727129_at) / Fold change /veh MAGEB2 (11727129_at) / RFU TMEM200A (11744735_a_at) / Fold change /veh TMEM200A (11744735_a_at) / RFU CCDC152 (11751479_a_at) / Fold change /veh CCDC152 (11751479_a_at) / RFU FAM211A (11726209_a_at) / Fold change /veh FAM211A (11726209_a_at) / RFU RGS16 (11746705_a_at) / Fold change /veh RGS16 (11746705_a_at) / RFU VCAN (11755009_s_at) / Fold change /veh VCAN (11755009_s_at) / RFU RHOB (11743442_s_at) / Fold change /veh RHOB (11743442_s_at) / RFU RGS16 (11720943_a_at) / Fold change /veh RGS16 (11720943_a_at) / RFU RGS16 (11720944_at) / Fold change /veh RGS16 (11720944_at) / RFU, VPS4B / Fold change vs veh, VPS4B / RFU, CREB1 / Fold change vs veh, CREB1 / RFU, DNAJC13 / Fold change vs veh, DNAJC13 / RFU, GNAQ / Fold change vs veh, GNAQ / RFU, CDK5R1 / Fold change vs veh, CDK5R1 / RFU, ZRANB3 / Fold change vs veh, ZRANB3 / RFU, CUL4A / Fold change vs veh, CUL4A / RFU, CCNY / Fold change vs veh, CCNY / RFU, UFL1 / Fold change vs veh, UFL1 / RFU, COG3 / Fold change vs veh, COG3 / RFU, DIAPH2 / Fold change vs veh, DIAPH2 / RFU, SKA2 / Fold change vs veh, SKA2 / RFU, AFF3 / Fold change vs veh, AFF3 / RFU, LMF1 / Fold change vs veh, LMF1 / RFU, IPO11 / Fold change vs veh, IPO11 / RFU, DFFB / Fold change vs veh, DFFB / RFU, FOXP1 / Fold change vs veh, FOXP1 / RFU, CARD8 / Fold change vs veh, CARD8 / RFU, STRN3 / Fold change vs veh, STRN3 / RFU, ADK / Fold change vs veh, ADK / RFU, RASSF2 / Fold change vs veh, RASSF2 / RFU, WIPF1 / Fold change vs veh, WIPF1 / RFU, LARP1B / Fold change vs veh, LARP1B / RFU, RASA1 / Fold change vs veh, RASA1 / RFU, RB1 / Fold change vs veh, RB1 / RFU, PPFIA1 / Fold change vs veh, PPFIA1 / RFU, MAT2A / Fold change vs veh, MAT2A / RFU, CCT5 / Fold change vs veh, CCT5 / RFU, WDR92 / Fold change vs veh, WDR92 / RFU, CUX1 / Fold change vs veh, CUX1 / RFU, TTC7A / Fold change vs veh, TTC7A / RFU, TMEM135 / Fold change vs veh, TMEM135 / RFU, DEPTOR / Fold change vs veh, DEPTOR / RFU, CPM / Fold change vs veh, CPM / RFU, DNAJB6 / Fold change vs veh, DNAJB6 / RFU, CACNA2D3 / Fold change vs veh, CACNA2D3 / RFU, DTX4 / Fold change vs veh, DTX4 / RFU, TFCP2 / Fold change vs veh, TFCP2 / RFU, GMCL1 /// GMCL1P1 / Fold change vs veh, GMCL1 /// GMCL1P1 / RFU, AEBP2 / Fold change vs veh, AEBP2 / RFU, SNHG1 /// SNORD22 /// SNORD25 /// SNORD26 /// SNORD27 /// SNORD28 /// SNORD29 /// SNORD31 / Fold change vs veh, SNHG1 /// SNORD22 /// SNORD25 /// SNORD26 /// SNORD27 /// SNORD28 /// SNORD29 /// SNORD31 / Fold change (Aza/veh), C12orf56 (ProbeSet 11735607_a_at) / Fold change (ACY-1035/veh), C12orf56 (ProbeSet 11735607_a_at) / Fold change (Aza/veh), FGFR1OP (ProbeSet 11751329_s_at) / Fold change (ACY-1035/veh), FGFR1OP (ProbeSet 11751329_s_at) / Fold change (Aza/veh), VPS36 (ProbeSet 11739960_a_at) / Fold change (ACY-1035/veh), VPS36 (ProbeSet 11739960_a_at) / RFU SYPL1 (11715823_x_at) / Fold change /veh SYPL1 (11715823_x_at) / RFU IGFBP7 (11715501_s_at) / Fold change /veh IGFBP7 (11715501_s_at) / RFU REEP3 (11722064_at) / Fold change /veh REEP3 (11722064_at) / RFU IGLL1 (11728026_x_at) / Fold change /veh IGLL1 (11728026_x_at): dose or concentration left out as unconfirmed
Details: ProbeSet 11722022_s_at; LIST D

Nc1ncn([C@@H]2O[C@H](CO)[C@@H](O)[C@H]2O)c(=O)n1 [azacitidine]
Fold change vs veh, CDK5R1: 0.77
